Tested on: not listed separately
Assay: DRUGMATRIX: Phorbol Ester radioligand binding (ligand: [3H] PDBu)
Type: cell membranes, Mus musculus, ICR, Brain, Membrane
Details: Not Active = under 50% inhibition at 10 µM

| Structure (SMILES) | IC50 | Ki |
| --- | --- | --- |
| CCCCC(=O)N(Cc1ccc(-c2ccccc2-c2nnn[nH]2)cc1)[C@H](C(=O)O)C(C)C | Not Active | Not Active |
| O=C(O)COc1ccc(C(=O)c2cccs2)c(Cl)c1Cl | Not Active | Not Active |
| C[C@@](Cc1ccc(O)c(O)c1)(NN)C(=O)O.O [CARBIDOPA] | Not Active | Not Active |
| O=C(O)CCCCC1CCSS1 (stereo not drawn) [LIPOIC ACID, ALPHA] | Not Active | Not Active |
| C[C@]12C=CC(=O)C=C1CC[C@@H]1[C@@H]2C(=O)C[C@@]2(C)[C@H]1CC[C@]2(O)C(=O)CO [PREDNISONE] | Not Active | Not Active |
| COC(=O)[C@H]1[C@H]2C[C@@H]3c4[nH]c5cc(OC)ccc5c4CCN3C[C@H]2C[C@@H](OC(=O)c2cc(OC)c(OC)c(OC)c2)[C@@H]1OC [RESERPINE] | Not Active | Not Active |
| O=C(O)c1ccccc1O [SALICYLIC ACID] | Not Active | Not Active |

Tested on: not listed separately
Assay: DRUGMATRIX: Serotonin (5-Hydroxytryptamine) 5-HT3 radioligand binding (ligand: [3H] GR-65630)
Type: cell membranes, Membrane
Details: hek293; Not Active = under 50% inhibition at 10 µM

| Structure (SMILES) | IC50 | Ki |
| --- | --- | --- |
| CCCCC(=O)N(Cc1ccc(-c2ccccc2-c2nnn[nH]2)cc1)[C@H](C(=O)O)C(C)C | Not Active | Not Active |
| O=C(O)COc1ccc(C(=O)c2cccs2)c(Cl)c1Cl | Not Active | Not Active |
| C[C@@](Cc1ccc(O)c(O)c1)(NN)C(=O)O.O [CARBIDOPA] | Not Active | Not Active |
| O=C(O)CCCCC1CCSS1 (stereo not drawn) [LIPOIC ACID, ALPHA] | Not Active | Not Active |
| C[C@]12C=CC(=O)C=C1CC[C@@H]1[C@@H]2C(=O)C[C@@]2(C)[C@H]1CC[C@]2(O)C(=O)CO [PREDNISONE] | Not Active | Not Active |
| COC(=O)[C@H]1[C@H]2C[C@@H]3c4[nH]c5cc(OC)ccc5c4CCN3C[C@H]2C[C@@H](OC(=O)c2cc(OC)c(OC)c(OC)c2)[C@@H]1OC [RESERPINE] | Not Active | Not Active |
| O=C(O)c1ccccc1O [SALICYLIC ACID] | Not Active | Not Active |

Biological target: D(1A) dopamine receptor (Homo sapiens, UniProt P21728)
Assay: DRUGMATRIX: Dopamine D1 radioligand binding (ligand: [3H] SCH-23390)
Type: cell membranes, CHO, Membrane
Details: cho; Not Active = under 50% inhibition at 10 µM

Chain of D(1A) dopamine receptor (P21728 whole entry): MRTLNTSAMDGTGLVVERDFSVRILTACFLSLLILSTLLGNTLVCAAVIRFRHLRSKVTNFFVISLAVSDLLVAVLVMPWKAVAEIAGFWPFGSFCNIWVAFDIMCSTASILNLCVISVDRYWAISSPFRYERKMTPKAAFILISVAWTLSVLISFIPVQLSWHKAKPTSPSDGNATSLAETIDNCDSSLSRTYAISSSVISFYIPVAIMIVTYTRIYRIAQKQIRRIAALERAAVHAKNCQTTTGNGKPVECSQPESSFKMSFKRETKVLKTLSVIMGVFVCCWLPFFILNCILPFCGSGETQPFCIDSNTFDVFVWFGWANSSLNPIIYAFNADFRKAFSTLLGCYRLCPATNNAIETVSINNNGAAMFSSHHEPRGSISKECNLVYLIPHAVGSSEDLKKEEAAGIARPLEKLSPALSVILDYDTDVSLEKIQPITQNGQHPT

| Structure (SMILES) | IC50 |
| --- | --- |
| CCCCC(=O)N(Cc1ccc(-c2ccccc2-c2nnn[nH]2)cc1)[C@H](C(=O)O)C(C)C | Not Active |
| O=C(O)COc1ccc(C(=O)c2cccs2)c(Cl)c1Cl | Not Active |
| C[C@@](Cc1ccc(O)c(O)c1)(NN)C(=O)O.O [CARBIDOPA] | Not Active |
| O=C(O)CCCCC1CCSS1 (stereo not drawn) [LIPOIC ACID, ALPHA] | Not Active |
| C[C@]12C=CC(=O)C=C1CC[C@@H]1[C@@H]2C(=O)C[C@@]2(C)[C@H]1CC[C@]2(O)C(=O)CO [PREDNISONE] | Not Active |
| COC(=O)[C@H]1[C@H]2C[C@@H]3c4[nH]c5cc(OC)ccc5c4CCN3C[C@H]2C[C@@H](OC(=O)c2cc(OC)c(OC)c(OC)c2)[C@@H]1OC [RESERPINE] | Not Active |
| O=C(O)c1ccccc1O [SALICYLIC ACID] | Not Active |

Biological target: T1, Glucocorticoid receptor (Homo sapiens, UniProt P04150); further: in other assays of this panel Not Active means under 50% inhibition at 10 µM
T1 sequence (P04150 whole entry): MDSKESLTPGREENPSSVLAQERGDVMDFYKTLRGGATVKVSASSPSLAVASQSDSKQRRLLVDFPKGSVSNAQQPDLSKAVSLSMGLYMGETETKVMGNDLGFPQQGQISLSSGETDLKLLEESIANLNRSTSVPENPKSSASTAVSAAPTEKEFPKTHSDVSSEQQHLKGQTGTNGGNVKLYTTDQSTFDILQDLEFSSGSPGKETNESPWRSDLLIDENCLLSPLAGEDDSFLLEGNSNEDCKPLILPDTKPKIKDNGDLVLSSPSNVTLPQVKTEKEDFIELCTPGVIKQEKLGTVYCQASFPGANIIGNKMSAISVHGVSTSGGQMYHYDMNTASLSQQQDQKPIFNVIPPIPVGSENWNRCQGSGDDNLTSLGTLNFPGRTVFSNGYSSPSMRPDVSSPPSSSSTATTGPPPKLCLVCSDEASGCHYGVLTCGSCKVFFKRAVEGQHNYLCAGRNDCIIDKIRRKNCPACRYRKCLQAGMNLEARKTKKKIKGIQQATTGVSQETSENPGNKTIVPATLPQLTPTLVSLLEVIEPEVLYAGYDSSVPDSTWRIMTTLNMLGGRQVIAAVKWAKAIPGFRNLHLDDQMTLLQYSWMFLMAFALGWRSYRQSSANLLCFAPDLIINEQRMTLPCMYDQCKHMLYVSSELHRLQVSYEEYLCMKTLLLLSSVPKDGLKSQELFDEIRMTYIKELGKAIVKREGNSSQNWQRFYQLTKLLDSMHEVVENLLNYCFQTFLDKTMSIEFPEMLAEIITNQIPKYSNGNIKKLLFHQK
Details: hela s3

| Structure (SMILES) | IC50 |
| --- | --- |
| CCCCC(=O)N(Cc1ccc(-c2ccccc2-c2nnn[nH]2)cc1)[C@H](C(=O)O)C(C)C | Not Active |
| O=C(O)COc1ccc(C(=O)c2cccs2)c(Cl)c1Cl | Not Active |
| O=C(O)CCCCC1CCSS1 (stereo not drawn) [LIPOIC ACID, ALPHA] | Not Active |
| COC(=O)[C@H]1[C@H]2C[C@@H]3c4[nH]c5cc(OC)ccc5c4CCN3C[C@H]2C[C@@H](OC(=O)c2cc(OC)c(OC)c(OC)c2)[C@@H]1OC [RESERPINE] | Not Active |

Tested on: not listed separately
Assay: DRUGMATRIX: GABAA, Chloride Channel, TBOB radioligand binding (ligand: [3H] TBOB)
Type: cell membranes, Rattus norvegicus, Wistar, Cerebral cortex, Membrane
Details: Not Active = under 50% inhibition at 10 µM

| Structure (SMILES) | IC50 | Ki |
| --- | --- | --- |
| CCCCC(=O)N(Cc1ccc(-c2ccccc2-c2nnn[nH]2)cc1)[C@H](C(=O)O)C(C)C | Not Active | Not Active |
| O=C(O)COc1ccc(C(=O)c2cccs2)c(Cl)c1Cl | Not Active | Not Active |
| C[C@@](Cc1ccc(O)c(O)c1)(NN)C(=O)O.O [CARBIDOPA] | Not Active | Not Active |
| O=C(O)CCCCC1CCSS1 (stereo not drawn) [LIPOIC ACID, ALPHA] | Not Active | Not Active |
| C[C@]12C=CC(=O)C=C1CC[C@@H]1[C@@H]2C(=O)C[C@@]2(C)[C@H]1CC[C@]2(O)C(=O)CO [PREDNISONE] | Not Active | Not Active |
| COC(=O)[C@H]1[C@H]2C[C@@H]3c4[nH]c5cc(OC)ccc5c4CCN3C[C@H]2C[C@@H](OC(=O)c2cc(OC)c(OC)c(OC)c2)[C@@H]1OC [RESERPINE] | Not Active | Not Active |
| O=C(O)c1ccccc1O [SALICYLIC ACID] | Not Active | Not Active |

Tested on: not listed separately
Assay: DRUGMATRIX: Sodium/nucleoside co-transporter radioligand binding (ligand: nitrobenzylthioinosine)
Type: cell membranes, Cavia porcellus, Dunkin-Hartley, Cerebral cortex, Membrane
Details: Not Active = under 50% inhibition at 10 µM

| Structure (SMILES) | IC50 | Ki |
| --- | --- | --- |
| CCCCC(=O)N(Cc1ccc(-c2ccccc2-c2nnn[nH]2)cc1)[C@H](C(=O)O)C(C)C | Not Active | Not Active |
| O=C(O)COc1ccc(C(=O)c2cccs2)c(Cl)c1Cl | Not Active | Not Active |
| C[C@@](Cc1ccc(O)c(O)c1)(NN)C(=O)O.O [CARBIDOPA] | Not Active | Not Active |
| O=C(O)CCCCC1CCSS1 (stereo not drawn) [LIPOIC ACID, ALPHA] | Not Active | Not Active |
| COC(=O)[C@H]1[C@H]2C[C@@H]3c4[nH]c5cc(OC)ccc5c4CCN3C[C@H]2C[C@@H](OC(=O)c2cc(OC)c(OC)c(OC)c2)[C@@H]1OC [RESERPINE] | Not Active | Not Active |
| O=C(O)c1ccccc1O [SALICYLIC ACID] | Not Active | Not Active |

Same assay, conditions: Not Active = under 50% inhibition at 10 µM; read-out: IC50

| Structure (SMILES) | IC50 [µM] |
| --- | --- |
| C[C@]12C=CC(=O)C=C1CC[C@@H]1[C@@H]2C(=O)C[C@@]2(C)[C@H]1CC[C@]2(O)C(=O)CO [PREDNISONE] | 4.95 |

Same assay, conditions: Not Active = under 50% inhibition at 10 µM; read-out: Ki

| Structure (SMILES) | Ki [µM] |
| --- | --- |
| C[C@]12C=CC(=O)C=C1CC[C@@H]1[C@@H]2C(=O)C[C@@]2(C)[C@H]1CC[C@]2(O)C(=O)CO [PREDNISONE] | 1.69 |

Biological target: Beta-1 adrenergic receptor (Homo sapiens, UniProt P08588)
Assay: DRUGMATRIX: Adrenergic beta1 radioligand binding (ligand: [125I] Cyanopindolol)
Type: cell membranes, CHO-K1, Membrane
Details: cho-k1; Not Active = under 50% inhibition at 10 µM

Chain of Beta-1 adrenergic receptor (P08588 whole entry): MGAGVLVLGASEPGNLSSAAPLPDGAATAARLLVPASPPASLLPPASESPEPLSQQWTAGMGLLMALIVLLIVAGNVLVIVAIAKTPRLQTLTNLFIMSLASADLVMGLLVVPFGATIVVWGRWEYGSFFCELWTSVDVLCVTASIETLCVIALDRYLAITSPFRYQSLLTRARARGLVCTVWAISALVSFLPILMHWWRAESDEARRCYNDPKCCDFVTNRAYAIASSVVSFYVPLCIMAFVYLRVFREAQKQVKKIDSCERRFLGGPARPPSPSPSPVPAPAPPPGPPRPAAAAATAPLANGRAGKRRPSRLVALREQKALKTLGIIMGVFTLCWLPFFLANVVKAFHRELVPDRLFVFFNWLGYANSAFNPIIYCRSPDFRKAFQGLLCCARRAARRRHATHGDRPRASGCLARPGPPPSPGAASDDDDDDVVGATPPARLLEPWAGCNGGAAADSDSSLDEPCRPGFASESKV

| Structure (SMILES) | IC50 |
| --- | --- |
| CCCCC(=O)N(Cc1ccc(-c2ccccc2-c2nnn[nH]2)cc1)[C@H](C(=O)O)C(C)C | Not Active |
| O=C(O)COc1ccc(C(=O)c2cccs2)c(Cl)c1Cl | Not Active |
| C[C@@](Cc1ccc(O)c(O)c1)(NN)C(=O)O.O [CARBIDOPA] | Not Active |
| O=C(O)CCCCC1CCSS1 (stereo not drawn) [LIPOIC ACID, ALPHA] | Not Active |
| C[C@]12C=CC(=O)C=C1CC[C@@H]1[C@@H]2C(=O)C[C@@]2(C)[C@H]1CC[C@]2(O)C(=O)CO [PREDNISONE] | Not Active |
| COC(=O)[C@H]1[C@H]2C[C@@H]3c4[nH]c5cc(OC)ccc5c4CCN3C[C@H]2C[C@@H](OC(=O)c2cc(OC)c(OC)c(OC)c2)[C@@H]1OC [RESERPINE] | Not Active |

Biological target: Kappa-type opioid receptor (Homo sapiens, UniProt P41145)
Assay: DRUGMATRIX: Opiate kappa (OP2, KOP) radioligand binding (ligand: [3H] Diprenorphine)
Type: cell membranes, HEK293, Membrane
Details: hek293; Not Active = under 50% inhibition at 10 µM

Chain of Kappa-type opioid receptor (P41145 whole entry): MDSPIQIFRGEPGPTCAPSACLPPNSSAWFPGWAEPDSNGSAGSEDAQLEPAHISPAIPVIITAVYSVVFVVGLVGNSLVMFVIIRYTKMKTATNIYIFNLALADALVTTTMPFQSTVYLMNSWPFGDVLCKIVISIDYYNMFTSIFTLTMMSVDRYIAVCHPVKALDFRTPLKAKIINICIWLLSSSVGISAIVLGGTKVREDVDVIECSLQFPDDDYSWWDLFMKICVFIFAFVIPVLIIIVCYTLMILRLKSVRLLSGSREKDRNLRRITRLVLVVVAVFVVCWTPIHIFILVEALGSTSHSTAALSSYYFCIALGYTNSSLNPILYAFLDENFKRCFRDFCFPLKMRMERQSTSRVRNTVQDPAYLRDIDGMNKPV

| Structure (SMILES) | IC50 |
| --- | --- |
| CCCCC(=O)N(Cc1ccc(-c2ccccc2-c2nnn[nH]2)cc1)[C@H](C(=O)O)C(C)C | Not Active |
| O=C(O)COc1ccc(C(=O)c2cccs2)c(Cl)c1Cl | Not Active |
| C[C@@](Cc1ccc(O)c(O)c1)(NN)C(=O)O.O [CARBIDOPA] | Not Active |
| O=C(O)CCCCC1CCSS1 (stereo not drawn) [LIPOIC ACID, ALPHA] | Not Active |
| C[C@]12C=CC(=O)C=C1CC[C@@H]1[C@@H]2C(=O)C[C@@]2(C)[C@H]1CC[C@]2(O)C(=O)CO [PREDNISONE] | Not Active |
| COC(=O)[C@H]1[C@H]2C[C@@H]3c4[nH]c5cc(OC)ccc5c4CCN3C[C@H]2C[C@@H](OC(=O)c2cc(OC)c(OC)c(OC)c2)[C@@H]1OC [RESERPINE] | Not Active |

— ChEMBL document CHEMBL1909046, “DrugMatrix in vitro pharmacology data”
